# Source: PMC5707067, “Farnesyl phenolic enantiomers as natural MTH1 inhibitors from Ganoderma sinense” (Oncotarget, 2017)
# System: MTH1 siRNA transfected SW620 cells
# Assay: CCK8 growth assay in MTH1 siRNA transfected cells
# Assay type: cell-based, human
# Method: In order to study whether the cytotoxicity of the farnesyl phenolic compounds was due to the inhibition of MTH1, the expression of endogenous MTH1 was knocked down in cancer cells. SW620 cell lines were transfected with MTH1 siRNA (#1, #2 and #3), [2] while the control was transfected with non-targeting siRNA (NT). The expression levels of MTH1 were measured by Western blot assay (Figure 6A and 6B), both siRNA #2 and #3 knocked down expressions of MTH1 in SW620 cells. The effects of compound 1 on the growth of MTH1 siRNA (#2 and #3) and non-targeting siRNA transfected cells were assessed by CCK8 assay.
# Figure 6 The specific binding of compound 1 to the MTH1 protein leads to cell growth inhibition (A, B) Western blot analysis and optical density analysis for the expression of MTH1 for the siRNA transfected cells. MTH1 siRNA #2 and #3 were both knocked down in SW620 cells compared with the non-target siRNA (NT). (C) The effects of compound 1 on the growth of MTH1 siRNA (#2 and #3) and non-targeting siRNA transfected cells were assessed by CCK8 assay. […] (D) The effects of compounds 1 on normal tissue cell lines [human hepatic cells (Lo2), African green monkey kidney vero cells (Vero)]. (E, F) Cellular thermal shift assay (CETSA) confirmed the binding capacity of compound 1 with MTH1 at the cellular level. […]
structure (smiles),measurement,value
"CO[C@]1(c2cc(O)cc(O)c2)C=C(CCCC(CO)CC/C=C(\C)COC(=O)/C=C/c2ccc(O)cc2)C(=O)O1 (stereo partly drawn) [Compound 1, (5R)-3-{9-[(E)-coumaroyl]-4-hydroxymethyl-8-methyl-7-nonene}-5-(3,5-dihydroxyphenyl)-5-methoxy-2(5H)-furanone]",growth inhibition of MTH1 siRNA (#2 and #3) vs non-targeting siRNA transfected cells,resistant to the growth inhibition
